Laboratory results taken from PubChem BioAssay (NCI).
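48-hour exposure; five concentrations; linearly interpolated endpoints. The concentration for 50% growth inhibition is given as GI50. TGI is the concentration that stops growth completely.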

Assays:
Assay in all cases: NCI-60 cell line screen, 48 h
KM12 colon = system: KM12 colon
HOP-62 NSCLC = system: HOP-62 NSCLC
SF-539 CNS = system: SF-539 CNS
NCI-H460 lung = system: NCI-H460 lung
786-0 renal = system: 786-0 renal
OVCAR-4 ovarian = system: OVCAR-4 ovarian
RPMI-8226 leukemia = system: RPMI-8226 leukemia
MDA-MB-231 breast = system: MDA-MB-231 breast
SR leukemia = system: SR leukemia
LOX IMVI melanoma = system: LOX IMVI melanoma

Row | Structure (SMILES) | GI50 (KM12 colon) | TGI (KM12 colon) | GI50 (HOP-62 NSCLC) | TGI (HOP-62 NSCLC) | GI50 (SF-539 CNS) | TGI (SF-539 CNS) | GI50 (NCI-H460 lung) | TGI (NCI-H460 lung) | GI50 (786-0 renal) | TGI (786-0 renal) | GI50 (OVCAR-4 ovarian) | TGI (OVCAR-4 ovarian) | GI50 (RPMI-8226 leukemia) | TGI (RPMI-8226 leukemia) | GI50 (MDA-MB-231 breast) | TGI (MDA-MB-231 breast) | GI50 (SR leukemia) | TGI (SR leukemia) | TGI (LOX IMVI melanoma) | GI50 (LOX IMVI melanoma)
1 | C=C1C[C@@]2(C)C(CC[C@]3(C)C2CC=C2C4CC(C)(C)C[C@@H](OC(=O)/C(C)=C\C)[C@]4(C(=O)O)CC[C@]23C)C(C)(C)C1=O (stereo partly specified) | 3.84 µM | 15.9 µM | 3.43 µM | 22.3 µM | 2.75 µM | 8.55 µM | 3.22 µM | 11 µM | 2 µM | 3.9 µM | 4.76 µM | 18.2 µM | 1.42 µM | 5.69 µM | 5.96 µM | 31.4 µM | 1.55 µM | 8.92 µM |  | 
2 | O=C(CC1C=CCS1(=O)=O)NCc1ccccc1 (stereo unspecified) |  | > 100 µM |  | > 100 µM |  | > 100 µM |  | > 100 µM |  | > 100 µM |  | > 100 µM |  |  |  | > 100 µM |  | > 100 µM | > 100 µM | 
3 | CC(=O)OC1Oc2ccccc2-c2oc(=O)c(-c3cc4ccccc4oc3=O)cc21 (stereo unspecified) | 41.4 µM | > 100 µM | 18.6 µM | 34.4 µM | 19.8 µM | 39.2 µM | 27.8 µM | 91 µM | 16.6 µM | 31.3 µM | 23.1 µM | 50.9 µM | 18.7 µM | 41.2 µM | 17.4 µM | 35 µM |  |  | 29.6 µM | 14.9 µM
4 | CCOC(=O)/C(=C\c1ccc[nH]1)C(=O)c1ccccc1 |  | > 100 µM |  | > 100 µM |  | > 100 µM |  | > 100 µM |  | > 100 µM |  | > 100 µM |  | > 100 µM |  |  |  | > 100 µM | > 100 µM | 
5 | N#CC1C2CCC3(CC2CCN1C(=O)c1ccccc1)OCCO3 (stereo unspecified) |  | > 100 µM |  | > 100 µM |  | > 100 µM |  | > 100 µM |  | > 100 µM |  | > 100 µM |  | > 100 µM |  |  |  | > 100 µM | > 100 µM | 
6 | N#CC1CC2(C(=O)C1=O)c1ccccc1-c1ccccc12 (stereo unspecified) |  | > 100 µM |  | > 100 µM |  |  |  | > 100 µM |  | > 100 µM |  | > 100 µM |  |  |  |  |  | > 100 µM | > 100 µM | 
7 | COC1=C(Br)C(=O)C2=C(C1=O)C1C3=C(C(=O)C=CC3=O)C2c2ccccc21 (stereo unspecified) | 12.4 µM | 32.1 µM | 25.9 µM | 47.6 µM | 2.92 µM | 8.79 µM | 33.3 µM | > 100 µM | 14.9 µM | 36.1 µM | 13.7 µM | 63.7 µM | 4.04 µM | > 100 µM | 8.15 µM | 66.1 µM |  |  | 26 µM | 4.91 µM
8 | COc1cc2c(cc1OCCCCOc1ccc(-c3nc4ccccc4s3)cc1)N=C[C@@H]1CCCN1C2=O |  |  | 0.745 µM | 2.14 µM | 0.768 µM | 2 µM | 1.56 µM | 4.06 µM | 0.58 µM | 1.16 µM | 1.24 µM | 9.02 µM | 0.337 µM | 1.42 µM | 0.573 µM | 2.04 µM | 0.276 µM | 1.12 µM | 1.96 µM | 0.73 µM
